Assay results: US7566531B2, “Selective whole cell quartz crystal microbalance biosensors” (University of Massachusetts, priority 2003, dated 2009)

Key:
[1] = tested on: normal capillary endothelial cells; assay: cell removal from QCM by PBS-EGTA; type: cell-based
Method: The above-described QCM biosensor was used to study cells and the ECM made by the cells. 50,000 normal capillary endothelial cells were seeded onto the QCM and maintained in DMEM-10% Calf Serum for 3-4 days to synthesize ECM. The cells were then removed by incubating in PBS-0.25 mM EGTA three times for 6 hours according to the method described in Paige et al., Cell Dev. Biol., 27A:151-157, 1991. During this process, the frequency and resistance of the QCM were recorded and plotted.
To corroborate this discovery, immunocytochemistry was carried out to examine actin stress fiber in the cells using standard techniques.

[2] = tested on: MCF-7 cells; assay: apoptosis assay (DAPI staining; Apoptotic Index and Mitotic Index); type: cell-based, human
Method: (§1) Duplicate MCF-7 or MDA-MB-231 cells that were treated with the same dose of paclitaxel were analyzed using an apoptosis assay as described in Warren M. et al., Free Radic Biol Med. 29:537-47, 2000. Briefly, cells were fixed sequentially in 50% and 100% methanol for 5 minutes each. The cells were then stained with 4,6,diamidino-2-phenylindole (DAPI; Sigma) at a final concentration of 0.5 mg/ml at 37° C. for 30 minutes. After being air-dried and mounted with 1:3 PBS-glycerol, chromatin distribution in the cells were visualized by fluorescence. […] Apoptosis was scored as the percentage of apoptotic cells in relation to the total cell number (i.e., Apoptotic Index), corrected for baseline apoptosis. Mitotic cells were also identified and mitosis was scored as the percentage of the mitotic cells in relation to all of the cells (i.e., Mitotic Index).

[3] = tested on: MDA-MB-231 cells; assay: as above; type: cell-based, human
Method: as §1

[4] = tested on: MCF-7 cells; assay: whole cell QCM biosensor, Δf and ΔR after drug addition; type: cell-based, human; settings: for QCM frequency decrease, Phase I / change in QCM resistance, Phase I: hour 0 to hour 6 post drug addition; for QCM frequency decrease, Phase I / change in QCM resistance, Phase I / QCM frequency increase, Phase II: 0.1 μM docetaxel, 10 μM paclitaxel; for QCM frequency increase, Phase II: hour 6 to hour 20 post drug addition
Method: (§2) Normal human mammary epithelial cells (HMEC), estrogen receptor-positive human breast cancer cells (MCF-7, a non-metastatic, malignant mammary epithelial cells), and estrogen receptor-negative metastatic human breast cancer cells (MDA-MB-231) were used for this study. These commercially available cells were cultured and harvested as recommended by the supplier, American Type Cell Cultures (ATCC). The cells were then seeded onto the chemically modified conducting surface of separate whole cell QCM biosensors and were allowed to reach the steady state. In general, it takes about 12-14 hours (hours) or less (as quick as within 6 hours) for the cells to reach the steady state on the new selective whole cell QCM biosensors. In contrast, on a QCM biosensor without the selective substrate, it takes about 20-24 hours for the cells to reach steady state. Cell number-dependent characteristic Δf and ΔR shift values of these cells were recorded as described in Marx et al., Biosens. Bioelectron., 16(9-12):773-82, 2001.
(§3) MCF-7 cells, which are resistant to paclitaxel treatment and MDA-MB-231 cells, which are sensitive to paclitaxel treatment were seeded onto two separate whole cell QCM biosensors and allowed to reach steady state as described above.
(§4) Paclitaxel (Sigma Chemical Company) was dissolved in dimethylsulfoxide to make a stock solution. The stock solution was properly diluted in culture media before being added to the cells on the QCM biosensors, so that the final concentration was 10 μM. […] After adding paclitaxel, the Δf and ΔR of the QCMs were monitored and recorded hourly.
(§5) MCF-7 cells and MDA-MB-231 cells were cultured and seeded onto QCM biosensors according to the method described above. The cells were then incubated with 0.1 μM docetaxel (Aventis Pharmaceuticals) and 10 μM paclitaxel. The changes in frequencies and resistances of the QCMs were monitored for 24 hours.

[5] = tested on: MDA-MB-231 cells; assay: as above; type: cell-based, human; settings: for QCM frequency decrease, Phase I / increase in QCM resistance, Phase I: hour 0 to hour 6 post drug addition; for QCM frequency decrease, Phase I / increase in QCM resistance, Phase I / QCM frequency increase, Phase II: 0.1 μM docetaxel, 10 μM paclitaxel; for QCM frequency increase, Phase II: hour 6 to hour 20 post drug addition
Method: as §2, §3, §4, §5

[6] = tested on: MCF-7 cells; assay: conventional proliferation assays and apoptosis assays; type: cell-based, human
Method: (§6) To confirm that the changes in the QCM frequency and resistance are associated with changes in cell growth or apoptosis, conventional proliferation assays and apoptosis assays were conducted on MDA-MB-231 cells and MCF-7 cells treated with docetaxel or paclitaxel. […] For example, both drugs reduced the mitotic index of MCF-7 cells and eliminated that of MDA-MB-231.

[7] = tested on: MDA-MB-231 cells; assay: as above; type: cell-based, human
Method: as §6

[8] = tested on: MCF-7 cells; assay: apoptosis assay (DAPI staining; Apoptotic Index and Mitotic Index); type: cell-based, human; settings: 10 μM
[9] = PBS-0.25 mM EGTA, EGTA 1 at hour 112 after cell seeding
[10] = 10 μM, 8 hours post paclitaxel addition
[11] = 10 μM, 50 hours post paclitaxel addition
[12] = 10 μM, between 8 and 50 hours post addition

With `O=C(O)CN(CCOCCOCCN(CC(=O)O)CC(=O)O)CC(=O)O` [EGTA] the “ΔR on initial exposure” value [1, 9] was “large decrease”, the “Δf on initial exposure” value [1, 9] was “large increase” and the “time for frequency and resistance to return to stable values” ([1]; PBS-0.25 mM EGTA, first exposure) was ≤ 2 h. The “cell detachment from the surface” value ([1]; minute 120 after exposing to EGTA) was “most cells had detached”.
`CC(=O)O[C@H]1C(=O)[C@@]2(C)[C@H]([C@H](OC(=O)c3ccccc3)[C@]3(O)C[C@H](OC(=O)[C@H](O)[C@@H](NC(=O)c4ccccc4)c4ccccc4)C(C)=C1C3(C)C)[C@]1(OC(C)=O)CO[C@@H]1C[C@@H]2O` [paclitaxel] was tested, and the “Apoptotic Index (AI)” value ([2]; 3 hours, 10 uM) was <1%, the “Mitotic Index (MI)” value ([2]; 3 hours, 10 uM) was 1% and the “Apoptotic Index (AI)” value ([2]; 6 hours, 0.1 uM) was 1%. For the same molecule, the “Mitotic Index (MI)” value ([2]; 6 hours, 0.1 uM) was 1%, the “Apoptotic Index (AI)” value ([2]; 6 hours, 1.0 uM) was 4.5% and the “Mitotic Index (MI)” value ([2]; 6 hours, 1.0 uM) was 0%. For the same molecule, the “Apoptotic Index (AI)” value ([2]; 6 hours, 10 uM) was 11%, the “Mitotic Index (MI)” value ([2]; 6 hours, 10 uM) was 0% and the “Apoptotic Index (AI)” value ([2]; 12 hours, 10 uM) was 25%. For the same molecule, the “Mitotic Index (MI)” value ([2]; 12 hours, 10 uM) was 0%, the “Apoptotic Index (AI)” value ([2]; 24 hours, 10 uM) was 33% and the “Mitotic Index (MI)” value ([2]; 24 hours, 10 uM) was 0%. For the same molecule, the “start of obvious cell shape change and eventually apoptosis, time post paclitaxel addition” value ([3]; 10 μM) was 8 h, the “Apoptotic Index (AI)” value ([3]; 3 hours, 10 uM) was <1% and the “Mitotic Index (MI)” value ([3]; 3 hours, 10 uM) was 0%. For the same molecule, the “Apoptotic Index (AI)” value ([3]; 6 hours, 0.1 uM) was 1%, the “Mitotic Index (MI)” value ([3]; 6 hours, 0.1 uM) was 0% and the “Apoptotic Index (AI)” value ([3]; 6 hours, 1.0 uM) was 8.5%. For the same molecule, the “Mitotic Index (MI)” value ([3]; 6 hours, 1.0 uM) was 0%, the “Apoptotic Index (AI)” value ([3]; 6 hours, 10 uM) was 10% and the “Mitotic Index (MI)” value ([3]; 6 hours, 10 uM) was 0%. For the same molecule, the “Apoptotic Index (AI)” value ([3]; 12 hours, 10 uM) was 40%, the “Mitotic Index (MI)” value ([3]; 12 hours, 10 uM) was 0% and the “Apoptotic Index (AI)” value ([3]; 24 hours, 10 uM) was 84%. The “Mitotic Index (MI)” value ([3]; 24 hours, 10 uM) was 0%, the “ΔR decrease immediately after adding the drug” value ([4]; 10 μM) was 50 Ω and the ΔR [4, 10] was “about 40 Ω”. For the same molecule, the Δf [4, 10] was −300 Hz, the ΔR [4, 11] was “about 20 Ω” and the Δf [4, 11] was −260 Hz. For the same molecule, the “magnitude of change of ΔR” value [4, 12] was 20 Ω, the “magnitude of change of Δf” value [4, 12] was 40 Hz and the “QCM frequency decrease, Phase I” value [4] was −20 Hz. The “change in QCM resistance, Phase I” value [4] was “little change”, the “QCM frequency increase, Phase II” value [4] was 50 Hz and the “ΔR increase immediately after adding the drug” value ([5]; 10 μM) was “about 70 Ω”. The ΔR [5, 10] was “about 80 Ω”, the Δf [5, 10] was −250 Hz and the ΔR [5, 11] was “about 40 Ω”. The Δf [5, 11] was −110 Hz, the “magnitude of change of ΔR” value [5, 12] was 40 Ω and the “magnitude of change of Δf” value [5, 12] was 140 Hz. For the same molecule, the “QCM frequency decrease, Phase I” value [5] was −20 Hz, the “increase in QCM resistance, Phase I” value [5] was “little change” and the “QCM frequency increase, Phase II” value [5] was 60 Hz. For the same molecule, the apoptosis [6] was “induced apoptosis”, the cell growth [6] was “inhibited cell growth” and the mitotic index [6] was “reduced”. The apoptosis [7] was “induced apoptosis”, the cell growth [7] was “inhibited cell growth” and the mitotic index [7] was “eliminated”. The “start of obvious cell shape change and eventually apoptosis, time post paclitaxel addition” value [8] was 8 h.
In the case of `CC(=O)O[C@@]12CO[C@@H]1C[C@H](O)[C@@]1(C)C(=O)[C@H](O)C3=C(C)[C@@H](OC(=O)[C@H](O)[C@@H](NC(=O)OC(C)(C)C)c4ccccc4)C[C@@](O)([C@@H](OC(=O)c4ccccc4)[C@H]21)C3(C)C` [docetaxel], the “QCM frequency decrease, Phase I” value [4] is reported as −50 Hz, the “change in QCM resistance, Phase I” value [4] is reported as “little change” and the “QCM frequency increase, Phase II” value [4] is reported as 10-20 Hz. The “QCM frequency decrease, Phase I” value [5] was −70 Hz, the “increase in QCM resistance, Phase I” value [5] was 20 Ohm and the “QCM frequency increase, Phase II” value [5] was 98 Hz. For the same molecule, the apoptosis [6] was “induced apoptosis”, the cell growth [6] was “inhibited cell growth” and the mitotic index [6] was “reduced”. The apoptosis [7] was “induced apoptosis”, the cell growth [7] was “inhibited cell growth” and the mitotic index [7] was “eliminated”.
